Data as given in ChEMBL document CHEMBL3108690, “Discovery and characterization of a novel dihydroisoxazole class of α-amino-3-hydroxy-5-methyl-4-isoxazolepropionic acid (AMPA) receptor potentiators” (J Med Chem, 2013).
pEC50, pKi: −log10 of the molar value. Activity calls are given as the source filed them. No cut-off for these calls is given here.

Columns and labels:
[1] = Apparent permeability from apical to basolateral side in MDCK cells at 2 uM by LC-MS/MS analysis; type: ADME, cell-based, Canis lupus familiaris; conditions: dog
human MDR1 = experiment: Efflux ratio of apparent permeability from basolateral to apical side over apical to basolateral side in MDCK cells transfected with human MDR1 at 2 uM; type: ADME, cell-based, Canis lupus familiaris; conditions: dog
[2] = Positive allosteric modulation of AMPAR in mouse embryonic stem cell-derived neurons assessed as intracellular Ca2+ flux by FLIPR assay; type: cell-based
Mus musculus [3] = species: Mus musculus; experiment: Positive allosteric modulation of AMPAR in mouse embryonic stem cell-derived neurons assessed as intracellular Ca2+ flux by FLIPR assay in presence of cyclothiazide relative to AMPA; type: cell-based
[4] = Displacement of [3H]PF-04725379 from Sprague-Dawley rat AMPAR after 2 hrs by liquid scintillation counting analysis
[5] = Ratio of drug level from brain to plasma in CD-1 mouse at 0.1 mg/kg, sc qd measured after 0.5 hrs; type: ADME, organism-based; design: dose 0.1 mg/kg, route subcutaneous; conditions: read-out: BPR
[6] = Terminal half life in Sprague-Dawley rat plasma at 0.2 mg/kg, sc qd; type: ADME, organism-based; design: dose 0.2 mg/kg, route subcutaneous; conditions: read-out: beta t1/2 (converted)
Rattus norvegicus [7] = experiment: Reversal of MK-801-mediated decrease in paired-pulse facilitation in Sprague-Dawley rat at 0.003 mg/kg, iv administered as bolus dose measured after 5 mins; type: functional, organism-based; design: dose 0.003 mg/kg
Mus musculus [8] = experiment: Ratio of unbound concentration in brain required to cause convulsion in CD-1 mouse at 0.32 to 0.56 mg/kg, sc to unbound concentration in brain required to cause induction of cGMP level in CD-1 mouse cerebellum at 0.32 mg/kg, sc
[9] = Ratio of free drug level from brain to plasma in Sprague-Dawley rat at 0.2 mg/kg, sc qd; type: ADME, organism-based; design: dose 0.2 mg/kg, route subcutaneous; conditions: read-out: K(p,uu,brain)
[10] = Terminal half life in Sprague-Dawley rat brain at 0.2 mg/kg, sc qd; type: ADME, organism-based; design: dose 0.2 mg/kg, route subcutaneous; conditions: read-out: beta t1/2 (converted)
Mus musculus [11] = experiment: Toxicity in CD-1 mouse assessed as induction of convulsion at 0.32 to 0.56 mg/kg, sc measured after 5 to 11 mins; type: organism-based; design: route subcutaneous; conditions: in vivo
[12] = Fraction unbound in Sprague-Dawley rat brain at 0.01 mg/kg, iv; type: ADME, organism-based; design: dose 0.01 mg/kg, route intravenous
Rattus norvegicus [13] = experiment: Toxicity in Sprague-Dawley rat assessed as induction of convulsion at 0.32 to 0.56 mg/kg, sc measured after 13 to 23 mins; type: organism-based; design: route subcutaneous; conditions: in vivo
[14] = Therapeutic index, ratio of unbound concentration in brain required to cause convulsion in Sprague-Dawley rat at 0.32 to 0.56 mg/kg, sc to unbound concentration in brain required to cause reversal of MK-801-mediated increase in low delta component of local field potential in Sprague-Dawley rat at 0.003 mg/kg, iv administered as bolus dose; type: organism-based; conditions: read-out: TI
Rattus norvegicus [15] = experiment: Reversal of MK-801-mediated decrease in paired-pulse facilitation in Sprague-Dawley rat at 0.001 mg/kg, iv administered as bolus dose measured after 5 mins; type: functional, organism-based; design: dose 0.001 mg/kg
Rattus norvegicus [16] = experiment: Toxicity in Sprague-Dawley rat assessed as induction of tremor at 0.32 to 0.56 mg/kg, sc measured at 10 mins; type: organism-based; design: dose 0.32-0.56 mg/kg, route subcutaneous; conditions: in vivo
[17] = Ratio of unbound concentration in brain required to cause induction of cGMP level in CD-1 mouse cerebellum at 0.32 mg/kg, sc over unbound concentration in brain required to cause reversal of MK-801-mediated increase in low delta component of local field potential in Sprague-Dawley rat at 0.003 mg/kg, iv administered as bolus dose; type: functional
[18] = Ratio of total drug level from brain to plasma in Sprague-Dawley rat at 0.2 mg/kg, sc qd; type: ADME, organism-based; design: dose 0.2 mg/kg, route subcutaneous; conditions: read-out: BPR
[19] = Fraction unbound in Sprague-Dawley rat plasma at 0.01 mg/kg, iv; type: ADME, organism-based; design: dose 0.01 mg/kg, route intravenous
Mus musculus [20] = experiment: Induction of cGMP level in sc dosed CD-1 mouse cerebellum administered as qd measured after 0.5 hrs by EIA; type: functional, organism-based
Rattus norvegicus [21] = experiment: Reversal of MK-801-mediated increase in low delta component of local field potential in Sprague-Dawley rat at 0.001 mg/kg, iv administered as bolus dose measured after 5 mins; type: functional, organism-based; design: dose 0.001 mg/kg
Rattus norvegicus [22] = experiment: Reversal of MK-801-mediated increase in low delta component of local field potential in Sprague-Dawley rat at 0.003 mg/kg, iv administered as bolus dose measured after 5 mins; type: functional, organism-based; design: dose 0.003 mg/kg
[23] = Apparent intrinsic clearance in human liver microsomes; type: ADME; conditions: read-out: CLH(app)
MDR1 = experiment: Efflux ratio of apparent permeability in MDCK cells expressing MDR1; type: ADME, cell-based, Canis lupus familiaris; conditions: dog
[24] = Apparent permeability in MDCK cells; type: ADME, cell-based, Canis lupus familiaris; conditions: dog

Structure (SMILES) | Papp A→B at 2 µM [1] [×10⁻⁶ cm/s] | efflux ratio at 2 µM (human MDR1) | pEC50 [2] | Emax (Mus musculus [3]) [%] | further results
CC(C)S(=O)(=O)NCC1CC(c2ccc(-c3cccc(C#N)c3)c(F)c2)=NO1 (racemic) | 15.1 | 1.17 | 5.73 | 156 | –
CC(C)S(=O)(=O)NCC1CC(c2ccc(-c3ccc(C#N)cc3)c(F)c2)=NO1 (racemic) | 16.7 | 1.4 | 5.58 | 124 | –
CC(C)S(=O)(=O)NCC1CC(c2cccc(F)c2)=NO1 (racemic) | – | – | < 4.50 | – | –
CC(C)S(=O)(=O)NCC1CC(c2ccc(-c3ccccc3)c(F)c2)=NO1 (racemic) | – | – | 5.49 | 138 | –
CC(C)S(=O)(=O)NC[C@@H]1CC(c2ccc(-c3ccccc3C#N)c(F)c2)=NO1 | 29.1 | 1.18 | > 8.00 | – | pKi [4]: 7.62
CC(C)S(=O)(=O)NCC1CC(c2ccc(N3CCCC3)c(F)c2)=NO1 (racemic) | – | – | 6.81 | 128 | –
CC(C)S(=O)(=O)NCC1CC(c2ccc(-c3ccccc3C#N)c(F)c2)=NO1 (racemic) | 12.9 | 1.16 | 7.06 | 152 | –
CC(=O)NC[C@@H]1CC(c2ccc(N3CCCC3)c(F)c2)=NO1 | – | – | 5.36 | – | microsomal CLint [23]: 26 µL/min/mg; efflux ratio (MDR1): 0.98; Papp [24]: 35 ×10⁻⁶ cm/s

More lines, main results first:

Papp A→B at 2 µM [1] [×10⁻⁶ cm/s] | efflux ratio at 2 µM (human MDR1) | Structure (SMILES) | pEC50 [2] | Emax (Mus musculus [3]) [%] | further results
– | 0.89 | CC(C)S(=O)(=O)NCC1CC(c2ccc(N3CCCC3)cc2)=NO1 (racemic) | 6.60 | 169 | –
– | 1.6 | CC(C)S(=O)(=O)NC[C@H]1CC(c2ccc(N3CCCC3)c(F)c2)=NO1 | 5.33 | 114 | pKi [4]: 5.24
3.93 | 12.1 | CC(=O)N[C@H]1CCN(c2ccc(C3=NO[C@H](CNS(=O)(=O)C(C)C)C3)cc2F)C1 | > 8.00 | 143 | Kp at 0.5 h [5]: 0.03
18.6 | 1.45 | CC(C)S(=O)(=O)NC[C@@H]1CC(c2ccc(N3CCCC3)c(F)c2)=NO1 | 6.91 | 147 | half-life [6]: 24 min; Activity (Rattus norvegicus [7]): Active; Ratio (Mus musculus [8]): 5; Kp uu [9]: 0.54; half-life [10]: 24 min; Activity (Mus musculus [11]): Toxic; fraction unbound [12]: 0.014; Activity (Rattus norvegicus [13]): Toxic; selectivity ratio [14]: 500; Activity (Rattus norvegicus [15]): inactive; Activity (Rattus norvegicus [16]): Toxic; Ratio [17]: 100; Kp [18]: 1.04; pKi [4]: > 7.62; fraction unbound [19]: 0.027; Activity (Mus musculus [20]): Dose-dependent effect; Activity (Rattus norvegicus [21]): inactive; Activity (Rattus norvegicus [22]): Active
22 | 0.84 | CC(C)S(=O)(=O)NCC1CC(c2ccc(-c3cccnc3)c(F)c2)=NO1 (racemic) | 6.53 | 157 | –
